The subject of series [1] is Cladosporium cladosporioides. Put plainly: Minimum inhibitory concentration test. It is filed as cell-based. Particulars: 96 H, 25° C., Sabouraud medium, 1 × 10^5/mL. The source says: (§1) In order to check the antibacterial and antifungal performance of the ozonized surfactant according to the present invention, bacteriostatic and bactericidal effects of the ozonized surfactant against five kinds of microorganisms were examined. The five kinds of target microorganisms were Staphyrococcus aureus as a prokaryotic gram-positive bacterium, Escherichia coli as a prokaryotic gram-negative bacterium, Saccharomyces cerevisiae and Trichophyton mentagrophytes as fungi which are eukaryotic microorganisms, and Cladosporium cladosporioides. One loopful of each strain was inoculated in a medium optimum for the strain, and cultured under culture conditions optimum for the strain to prepare a cell suspension for inoculation. […] 9 mL of each medium shown in Table 1 was dispensed into L-shaped test tubes for a biophotorecorder, and was then sterilized by steam. […] 0.1 mL of the cell suspension for inoculation was inoculated into the graduated dilution series to be tested (the initial number of cells of each microorganism is shown in Table 1). […] In the following tests, they were sterilized in the same manner. [table] […] Another graduated dilution series was prepared between the temporary minimum inhibitory concentration and the concentration of the ozonized surfactant nearest to the temporary minimum inhibitory concentration, at which turbidity occurred. Then, the same operation as described above was again carried out. […] It is to be noted that this MIC test against these five kinds of microorganisms was carried out also using, as a control, the surfactant solution not subjected to ozone treatment.

The subject of the next series is Escherichia coli. The experiment in a line: Minimum inhibitory concentration test. It is filed as cell-based. Particulars: 24 H, 30° C., Bouillon liquid medium, 1 × 10^7/mL.
From the text: as §1

For the next series, the system named is Saccharomyces cerevisiae. Put plainly: Minimum inhibitory concentration test. The class given is cell-based. The conditions noted are these: 48 H, 28° C., YM liquid medium, 1 × 10^6/mL.
From the text: as §1

A further series concerns Staphyrococcus aureus. The experiment in a line: Minimum inhibitory concentration test. The class given is cell-based. Particulars: 24 H, 37° C., Bouillon liquid medium, 1 × 10^7/mL.
From the text: as §1

The test system of series [2] is Trichophyton mentagrophytes. The experiment in a line: Minimum inhibitory concentration test. It is filed as cell-based. Particulars: 96 H, 25° C., Sabouraud medium, 1 × 10^5/mL.
From the text: as §1

Series [3] is described as follows: Surface-active property test (contact angle on polyvinyl chloride plate). The class given is physicochemical. The conditions noted are these: Surfactant not subjected to ozone treatment; 1 wt % aqueous solution on polyvinyl chloride plate. The procedure:
The surface-active properties of ozonized surfactants were determined in the following manner. 1 wt % of aqueous solutions of surfactants (Tween 80, polyethylene glycol 10 oleyl ether, and polyethylene glycol 20 oleyl ether (manufactured by Wako Pure Chemical Industries, Ltd.)) were prepared, and each of the solutions was dropped on a polyvinyl chloride plate to measure a contact angle (θ) using a contact angle meter CA-VP (manufactured by Kyowa Interface Science Co., Ltd.). The same measurement was carried out for the ozonized surfactants obtained in Examples 1, 2 and 4.

Turning to “Polyethylene glycol 10 oleyl ether [Polyethylene glycol (10) oleyl ether]”, the minimum inhibitory concentration (in series [1]; in the series on Escherichia coli; in the series with Saccharomyces cerevisiae; with Staphyrococcus aureus; in series [2]) was over 1% by weight throughout. The “Contact angle (θ)” value in series [3] is given as 51.9 degree (°).
Turning to “polyethylene glycol 20 oleyl ether [Polyethylene glycol (20) oleyl ether]”, the “Contact angle (θ)” value in series [3] is on record as 59.4 degree (°).

For the origin of these results see US20100041903A1, “Ozonized Surfactant” (ERC TECHNOLOGY INC., priority 2006, published 2010).
